Data published in US20240174634A1, “Aldehyde Dehydrogenase Inhibitors and Their Therapeutic Use” (priority 2020, published 2024).

target: T1, ALDH1A3 (Homo sapiens, UniProt P47895); assay: Primary biochemical assay, NAD(P)H-Glo Detection System; set-up: His-tag; made in house; host or cells: E. coli Rosetta (DE3); conditions: 30 min pre-incubation, propionaldehyde and NAD at Km
T1 sequence (P47895 1-512): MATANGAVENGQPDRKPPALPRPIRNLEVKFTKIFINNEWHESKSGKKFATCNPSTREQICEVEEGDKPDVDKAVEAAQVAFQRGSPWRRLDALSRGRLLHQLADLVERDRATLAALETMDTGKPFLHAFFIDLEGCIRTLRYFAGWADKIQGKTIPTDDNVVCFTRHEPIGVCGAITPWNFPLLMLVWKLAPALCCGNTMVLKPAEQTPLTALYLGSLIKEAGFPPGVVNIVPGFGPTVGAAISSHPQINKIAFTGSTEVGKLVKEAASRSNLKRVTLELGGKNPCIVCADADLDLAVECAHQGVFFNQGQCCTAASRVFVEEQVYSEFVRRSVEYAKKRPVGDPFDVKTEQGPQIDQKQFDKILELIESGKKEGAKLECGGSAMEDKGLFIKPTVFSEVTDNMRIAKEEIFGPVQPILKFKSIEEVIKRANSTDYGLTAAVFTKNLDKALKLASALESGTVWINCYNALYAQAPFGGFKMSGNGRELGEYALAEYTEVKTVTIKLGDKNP
Excerpt: Cloning: Open reading frames corresponding to the protein coding sequences of full length human ALDH1A1 (Uniprot ID P00352), ALDH1A2 (094788) and ALDH1A3 (P47895) were polymerase chain reaction (PCR) amplified from human cDNA and inserted into the multi-cloning sites of the commercially available (Novagen) E. coli expression vectors pET47b (ALDH1A1, EcoRI restriction site; ALDH1A2, BamHI and EcoRI sites) or pET28a (ALDH1A3, NdeI and BamHI sites), using standard molecular genetic techniques. Recombinant DNA products were sequence verified prior to use in expression studies.
Expression: Expression constructs were transformed into the E. coli strain Rosetta (DE3) (Merck) and individual colonies used to inoculate 10 mL lysogen broth (LB) medium supplemented with kanamycin and chloramphenicol at 50 μg/mL and 34 μg/mL, respectively. Cultures were grown to saturation overnight at 37° C., prior to being used to sub-inoculate fresh 1 L LB medium cultures (plus antibiotics, as before). 1 L cultures were grown at 37° C., 200 rpm, throughout the day until the optical density at 600 nm (OD600) reached ˜0.8, at which point growth temperature was reduced to 18° C. and 1 mM isopropyl β-d-1-thiogalacto pyranoside (IPTG) added to induce protein expression.
Cultures were left overnight (at least 16 h) under these conditions and the following day harvested by centrifugation (4000 G, 10 minutes). Culture supernatant was discarded and cell pellets stored at −80° C. until further processing.
Purification: Cell pellets were thawed on ice, re-suspended in Ni Affinity Buffer A (20 mM HEPES pH 7.5, 300 mM NaCl, 20 mM imidazole, 1 mM tris(2-carboxyethyl)phosphine (TCEP)) with protease inhibitors (cOmplete Ultra protease inhibitor, Roche), and lysed by sonication. Lysates were clarified by centrifugation at 18,000 G, 4° C., for 40 minutes, and loaded directly onto a pre-equilibrated (Buffer A) 5 mL HisTrap Fast Flow column (GE Healthcare) by way of an AKTA Fast Protein Liquid Chromatography (FPLC) system. The column was sequentially treated with 6 column volumes (CV) 100% Buffer A, 8 CV of 90% Buffer A:10% Buffer B (20 mM 4-(2-hydroxyethyl)-1-piperazineethanesulfonic acid (HEPES) pH 7.5, 300 mM NaCl, 500 mM imidazole, 1 mM TCEP) and finally a linear gradient from 10-70% Buffer B over 8 CV to elute recombinant His-tagged protein. Relevant fractions (as measured by 280 nm absorbance) collected during elution were pooled and subjected to further purification by size exclusion chromatography (Superdex 200 26/600, GE Healthcare, running buffer 20 mM 2-(carbamoylmethylamino)ethanesulfonic acid (ACES) pH 7.5, 1 mM TCEP). Relevant fractions from this step were pooled, aliquoted, and stored at −80° C. until required for compound profiling assays.
Materials: ALDH2 was purchased from Abnova. Tris(hydroxymethyl)aminomethane (Tris) was purchased from MP Biomedicals. TCEP, ethylenediaminetetraacetic acid (EDTA), propionaldehyde, DMSO and Tween-20 were purchased from Sigma. Nicotinamide adenine dinucleotide (NAD) was obtained from Abcam. The NAD(P)H-Glo™ Detection System was purchased from Promega. White, non-binding surface, 384 well plates were supplied by Corning (#3574).
Method: Inhibition of ALDH1A3 was assessed using the NAD(P)H-Glo™ Detection System (Cat. No. G9062) from Promega. This assay detects the production of NADH from NAD by ALDH1A3 via the coupled enzymatic conversion of a proluciferin reductase substrate to generate a luminescent signal. Inhibition of ALDH1A3 by small molecule inhibitors will result in reduction or abrogation of luminescence signal increase above background. Inhibition of ALDH1A1, ALDH1A2 and ALDH2 (selectivity assays) were assessed using the same assay.
Compounds were dosed into Corning 384 well assay plates using an Echo acoustic dispenser to give 10 point curves in a 3-fold dilution series. Compounds were dispensed from a 20 mM DMSO stock and initially screened at a top concentration of 20 μM (ALDH1A3) or 250 μM (ALDH1A1, ALDH1A2 & ALDH2). […]

| Compound | IC50 [nM] |
| --- | --- |
| O=C1CCc2cc(NC(=O)c3c[nH]nc3-c3cccc(F)c3)ccc2N1 [ALDHI-1006, 3-(3-fluorophenyl)-N-(2-oxo-1,2,3,4-tetrahydroquinolin-6-yl)-1H-pyrazole-4-carboxamide] | 100 to 1000 |
| O=C1CCc2cc(OCCN3CCCC3c3ccccn3)ccc2N1 (centres unmarked) [ALDHI-2006, 6-[2-[2-(2-pyridyl)pyrrolidin-1-yl]ethoxy]-3,4-dihydro-1H-quinolin-2-one] | 100 to 1000 |
| O=C1CCc2cc(OCCN3CCC3c3cccc(F)c3)ccc2N1 (centres unmarked) [ALDHI-2021, 6-[2-[2-(3-fluorophenyl)azetidin-1-yl]ethoxy]-3,4-dihydro-1H-quinolin-2-one] | 100 to 1000 |
| CN(CCOc1ccc2c(c1)CCC(=O)N2)C(=O)c1cccnc1 [ALDHI-3013, N-methyl-N-[2-[(2-oxo-3,4-dihydro-1H-quinolin-6-yl)oxy]ethyl]pyridine-3-carboxamide] | 100 to 1000 |
| O=C1CCc2cc(OCCN(CCO)Cc3cccc(F)c3)ccc2N1 [ALDHI-3002, 6-[2-[(3-fluorophenyl)methyl-(2-hydroxyethyl)amino]ethoxy]-3,4-dihydro-1H-quinolin-2-one] | < 100 |
| O=C1CCc2cc(NC(=O)c3scnc3-c3ccc(F)cc3)ccc2N1 [ALDHI-1017, 4-(4-fluorophenyl)-N-(2-oxo-1,2,3,4-tetrahydroquinolin-6-yl)thiazole-5-carboxamide] | < 100 |
| Cc1ccc(C2CCCN2CCOc2ccc3c(c2)CCC(=O)N3)cc1 (centres unmarked) [ALDHI-2010, 6-[2-[2-(p-tolyl)pyrrolidin-1-yl]ethoxy]-3,4-dihydro-1H-quinolin-2-one] | < 100 |
| Cc1cccc(C2CCCN2CCOc2ccc3c(c2)CCC(=O)N3)c1 (centres unmarked) [ALDHI-2011, 6-[2-[2-(m-tolyl)pyrrolidin-1-yl]ethoxy]-3,4-dihydro-1H-quinolin-2-one] | 100 to 1000 |
| O=C1CCc2cc(OCCN3CCC[C@@H]3c3cccc(F)c3)ccc2N1 [ALDHI-2007, 6-[2-[(2R)-2-(3-fluorophenyl)pyrrolidin-1-yl]ethoxy]-3,4-dihydro-1H-quinolin-2-one] | < 100 |
| O=C1CCc2cc(OCCN3CCCC3c3cccs3)ccc2N1 (centres unmarked) [ALDHI-2013, 6-[2-[2-(2-thienyl)pyrrolidin-1-yl]ethoxy]-3,4-dihydro-1H-quinolin-2-one] | < 100 |
| O=C1CCc2cc(OCCN3CCCC3c3ccc(F)cc3)ccc2N1 (centres unmarked) [ALDHI-2003, 6-[2-[2-(4-fluorophenyl)pyrrolidin-1-yl]ethoxy]-3,4-dihydro-1H-quinolin-2-one] | < 100 |
| O=C1CCc2cc(NC(=O)c3ocnc3-c3cccc(F)c3)ccc2N1 [ALDHI-1019, 4-(3-fluorophenyl)-N-(2-oxo-3,4-dihydro-1H-quinolin-6-yl)oxazole-5-carboxamide] | 100 to 1000 |
| O=C1CCc2cc(OCCN3CCCC3c3ccncc3)ccc2N1 (centres unmarked) [ALDHI-2004, 6-[2-[2-(4-pyridyl)pyrrolidin-1-yl]ethoxy]-3,4-dihydro-1H-quinolin-2-one] | 100 to 1000 |
| CCN(CC)CCN(CCOc1ccc2c(c1)CCC(=O)N2)Cc1ccccc1 [ALDHI-3004, 6-[2-[benzyl-[2-(diethylamino)ethyl]amino]ethoxy]-3,4-dihydro-1H-quinolin-2-one] | 100 to 1000 |
| O=C1CCc2cc(OCCN3CCCC3c3cccc(F)c3)ccc2N1 (centres unmarked) [ALDHI-2001, 6-[2-[2-(3-fluorophenyl)pyrrolidin-1-yl]ethoxy]-3,4-dihydro-1H-quinolin-2-one] | < 100 |
| O=C1CCc2cc(OCCn3nccc3-c3cccc(F)c3)ccc2N1 [ALDHI-2023, 6-[2-[5-(3-fluorophenyl)pyrazol-1-yl]ethoxy]-3,4-dihydro-1H-quinolin-2-one] | < 100 |
| CC1CN(CCOc2ccc3c(c2)CCC(=O)N3)C(c2ccccc2)CO1 (mixture of isomers) [ALDHI-2042, 6-[2-(2-methyl-5-phenyl-morpholin-4-yl)ethoxy]-3,4-dihydro-1H-quinolin-2-one] | 100 to 1000 |
| O=C1COc2cc(OCCN3CCCC3c3cccc(F)c3)ccc2N1 (centres unmarked) [ALDHI-2009, 7-[2-[2-(3-fluorophenyl)pyrrolidin-1-yl]ethoxy]-4H-1,4-benzoxazin-3-one] | 100 to 1000 |
| O=C1CCc2cc(NC(=O)c3sccc3-c3cccc(F)c3)ccc2N1 [ALDHI-1022, 3-(3-fluorophenyl)-N-(2-oxo-3,4-dihydro-1H-quinolin-6-yl)thiophene-2-carboxamide] | 100 to 1000 |
| CCC1Oc2cc(OCCN3CCCC3c3cccc(F)c3)ccc2NC1=O (centres unmarked) [ALDHI-2045, 2-ethyl-7-[2-[2-(3-fluorophenyl)pyrrolidin-1-yl]ethoxy]-4H-1,4-benzoxazin-3-one] | < 100 |
| O=C1CCc2cc(NC(=O)c3ccccc3-c3cccc(F)c3)ccc2N1 [ALDHI-1007, 3′-fluoro-N-(2-oxo-1,2,3,4-tetrahydroquinolin-6-yl)-[1,1′-biphenyl]-2-carboxamide] | 1000 to 10000 |
| O=C1CCCc2cc(OCCN3CCCC3c3cccc(F)c3)ccc2N1 (centres unmarked) [ALDHI-2020, 7-[2-[2-(3-fluorophenyl)pyrrolidin-1-yl]ethoxy]-1,3,4,5-tetrahydro-1-benzazepin-2-one] | < 100 |
| O=C1CCc2cc(OCCN3CCCC3c3cccc(F)c3)c(F)cc2N1 (centres unmarked) [ALDHI-2050, 7-fluoro-6-[2-[2-(3-fluorophenyl)pyrrolidin-1-yl]ethoxy]-3,4-dihydro-1H-quinolin-2-one] | < 100 |
| O=C1CCc2cc(NC(=O)c3scnc3-c3ccccc3F)ccc2N1 [ALDHI-1021, 4-(2-fluorophenyl)-N-(2-oxo-3,4-dihydro-1H-quinolin-6-yl)thiazole-5-carboxamide] | < 100 |
| O=C1CCc2cc(NC(=O)c3scnc3-c3cccs3)ccc2N1 [ALDHI-1023, N-(2-oxo-3,4-dihydro-1H-quinolin-6-yl)-4-(2-thienyl)thiazole-5-carboxamide] | < 100 |
| CN(CCOc1ccc2c(c1)CCC(=O)N2)Cc1cccc(F)c1 [ALDHI-3001, 6-[2-[(3-fluorophenyl)methyl-methyl-amino]ethoxy]-3,4-dihydro-1H-quinolin-2-one] | 100 to 1000 |
| O=C1CSc2cc(OCCN3CCCC3c3ccccn3)ccc2N1 (centres unmarked) [ALDHI-2027, 7-[2-[2-(2-pyridyl)pyrrolidin-1-yl]ethoxy]-4H-1,4-benzothiazin-3-one] | 100 to 1000 |
| CC1Oc2cc(OCCN3CCCC3c3cccc(F)c3)ccc2NC1=O (centres unmarked) [ALDHI-2044, 7-[2-[2-(3-fluorophenyl)pyrrolidin-1-yl]ethoxy]-2-methyl-4H-1,4-benzoxazin-3-one] | < 100 |
| O=C1CCc2cc(OCCN3CC(F)(F)CC3c3cccc(F)c3)ccc2N1 (centres unmarked) [ALDHI-2053, 6-[2-[4,4-difluoro-2-(3-fluorophenyl)pyrrolidin-1-yl]ethoxy]-3,4-dihydro-1H-quinolin-2-one] | < 100 |
